{
  "source": "patent US5744452A",
  "about": "“γ-L-glutamyl containing immunomodulator compounds and methods therewith” (Wei; Edward T., priority 1995, dated 1998)",
  "key": {"[1]": {"test_system": "murine bone marrow cells", "experiment": ".THETA.-antigen expression on murine bone marrow cells (T-lymphocyte precursor differentiation)", "format": "cell-based, CBA strain mice", "parameters": ".THETA.-antigen expression on murine bone marrow cells: unit not given here", "conditions": "for .THETA.-antigen expression on murine bone marrow cells: Table 1; for Percent of murine bone marrow cells expressing .THETA.-antigen: Table 5", "description": "Differentiation of murine T-lymphocyte precursors was studied by the enumeration of cells expressing early surface differentiation marker .THETA.-antigen. Bone marrow cells were obtained from CBA strain mice killed by cervical dislocation. Cells were washed from femur bones with Hank's balanced salt solution and washed 3 times with RPM 1-1640 medium by centrifugation at 400 xg. Peptides at desired concentrations were incubated with 1×10^6 /ml of obtained cells for 1 hour at 37° C. Theta-antigen (\".THETA.-antigen\") expression has been determined with antibrain antibodies in a cytotoxicity assay using complement-dependent cell lysis (Terasaki et al., \"Microdroplet Lymphocyte Cytotoxicity Test. Manual of Tissue Typing Techniques,\" National Institutes of Health, Bethesda, Md., pp 50-55, 1972). Dead cells were counted microscopically after eosin staining. […] Its activity was much stronger than that of the reference thymogen peptide.\nDifferentiation of murine T-lymphocyte precursors was studied by the enumeration of cells expressing early surface differentiation marker--.THETA.-antigen which is an analog of the Thy-1 lymphocyte differentiation antigen. Bone marrow cells were obtained from CBA strain mice killed by cervical dislocation. Cells were washed from femur bones with Hank's balanced salt solution and washed 3 times with RPMI-1640 medium by centrifugation at 400 xg. Peptides at desired concentrations were incubated with 1×10^6 /ml of obtained cells for 1 hour at 37° C. .THETA.-antigen expression were determined with antibrain antibodies in a cytotoxicity assay using complement-dependent cell lysis (Terasaki et al., 1972). Dead cells were counted microscopically after eosin staining untreated bone marrow cells served as a negative control, and murine thymocytes as a positive control."}, "[2]": {"test_system": "human subjects", "experiment": "Side-effects in all 62 human subjects", "format": "in vivo", "conditions": "0.1 mg i.m. per day for 5 days, 62 patients", "description": "Preliminary studies were conducted to characterize the immunomodulatory properties of Bestim in human subjects. The protocol for the human subjects studies were reviewed and approved by a Hospital Committee (Moscow Hospital N-24) and informed consent was obtained from all subjects. All 62 patients received by intramuscular injection 0.1 mg of Bestim dissolved in 1.5 to 2.0 ml of sterile saline, one injection per day for 5 days. Patients participating in the clinical trials were from 2 groups: […]"}, "[3]": {"test_system": "murine thymocytes", "experiment": "Murine thymocyte differentiation after intraperitoneal injection", "format": "in vivo, CBA mice", "conditions": "for Percent of thymocytes expressing L3T4 / Percent of thymocytes expressing Lyt2 / Percent of thymocytes expressing Thy-1: 24 hours", "description": "Bestim was injected into 3-month old CBA mice at doses ranging from 10 ng/kg to 100 μg/kg intraperitoneally. Mice were killed by cervical dislocation 24 hours after injection, the thymus gland removed, and the cells isolated by centrifugation and washed in RPMI-1640 medium. Expression of surface differentiation antigens were measured using monoclonal antibodies to L3T4 (T-helper marker), Lyt 2 (T-cytotoxic marker) and Thy-1 (common T-lymphocyte marker) molecules in a cytotoxicity assay using complement-dependent cell lysis (Terasaki et al., 1972). Dead cells were counted microscopically after eosin staining."}},
  "data": [
    {"smiles": "N[C@@H](CCC(=O)N[C@@H](Cc1c[nH]c2ccccc12)C(=O)O)C(=O)O", "note": "[Bestim, γ-L-glutamyl-L-tryptophan]", "values": [
      {"measurement": ".THETA.-antigen expression on murine bone marrow cells", "setting": "[1]; peptide 0.0001 μg/ml, 1 hour 37° C.", "result": "14 ± 1.5"},
      {"measurement": ".THETA.-antigen expression on murine bone marrow cells", "setting": "[1]; peptide 0.001 μg/ml", "result": "29 ± 2.4"},
      {"measurement": ".THETA.-antigen expression on murine bone marrow cells", "setting": "[1]; peptide 0.01 μg/ml", "result": "30 ± 2.8"},
      {"measurement": ".THETA.-antigen expression on murine bone marrow cells", "setting": "[1]; peptide 0.1 μg/ml", "result": "34 ± 1.9"},
      {"measurement": ".THETA.-antigen expression on murine bone marrow cells", "setting": "[1]; peptide 1.0 μg/ml", "result": "49 ± 1.2"},
      {"measurement": ".THETA.-antigen expression on murine bone marrow cells", "setting": "[1]; peptide 10 μg/ml", "result": "48 ± 0.8"},
      {"measurement": ".THETA.-antigen expression on murine bone marrow cells", "setting": "[1]; peptide 100 μg/ml", "result": "47 ± 1.0"},
      {"measurement": "Percent of murine bone marrow cells expressing .THETA.-antigen", "setting": "[1]; peptide 0.0001 μg/ml", "result": 25, "unit": "%"},
      {"measurement": "Percent of murine bone marrow cells expressing .THETA.-antigen", "setting": "[1]; peptide 0.001 μg/ml", "result": 31, "unit": "%"},
      {"measurement": "Percent of murine bone marrow cells expressing .THETA.-antigen", "setting": "[1]; peptide 0.01 μg/ml", "result": 35, "unit": "%"},
      {"measurement": "Percent of murine bone marrow cells expressing .THETA.-antigen", "setting": "[1]; peptide 0.1 μg/ml", "result": 37, "unit": "%"},
      {"measurement": "Percent of murine bone marrow cells expressing .THETA.-antigen", "setting": "[1]; peptide 1.0 μg/ml", "result": 49, "unit": "%"},
      {"measurement": "Percent of murine bone marrow cells expressing .THETA.-antigen", "setting": "[1]; peptide 10 μg/ml", "result": 52, "unit": "%"},
      {"measurement": "Percent of murine bone marrow cells expressing .THETA.-antigen", "setting": "[1]; peptide 100 μg/ml", "result": 60, "unit": "%"},
      {"measurement": "potency relative to thymogen", "setting": "[1]; dose-response analysis of Table 1 data", "result": "at least 500 fold"},
      {"measurement": "concentrations with immunostimulatory activity", "setting": "[1]; preclinical studies, summary", "result": "sub-nanomolar concentrations"},
      {"measurement": "side-effects", "setting": "[2]", "result": "No detectable side-effects"},
      {"measurement": "Percent of thymocytes expressing L3T4", "setting": "[3]; 0.01 μg/kg i.p.", "result": "40 ± 8", "unit": "%"},
      {"measurement": "Percent of thymocytes expressing Lyt2", "setting": "[3]; 0.01 μg/kg i.p.", "result": "45 ± 5", "unit": "%"},
      {"measurement": "Percent of thymocytes expressing Thy-1", "setting": "[3]; 0.01 μg/kg i.p.", "result": "95 ± 3", "unit": "%"},
      {"measurement": "Percent of thymocytes expressing L3T4", "setting": "[3]; 0.1 μg/kg i.p.", "result": "55 ± 1", "unit": "%"},
      {"measurement": "Percent of thymocytes expressing Lyt2", "setting": "[3]; 0.1 μg/kg i.p.", "result": "44 ± 2", "unit": "%"},
      {"measurement": "Percent of thymocytes expressing Thy-1", "setting": "[3]; 0.1 μg/kg i.p.", "result": "89 ± 2", "unit": "%"},
      {"measurement": "Percent of thymocytes expressing L3T4", "setting": "[3]; 1 μg/kg i.p.", "result": "54 ± 1", "unit": "%"},
      {"measurement": "Percent of thymocytes expressing Lyt2", "setting": "[3]; 1 μg/kg i.p.", "result": "46 ± 1", "unit": "%"},
      {"measurement": "Percent of thymocytes expressing Thy-1", "setting": "[3]; 1 μg/kg i.p.", "result": "91 ± 1", "unit": "%"},
      {"measurement": "Percent of thymocytes expressing L3T4", "setting": "[3]; 10 μg/kg i.p.", "result": "64 ± 1", "unit": "%"},
      {"measurement": "Percent of thymocytes expressing Lyt2", "setting": "[3]; 10 μg/kg i.p.", "result": "47 ± 2", "unit": "%"},
      {"measurement": "Percent of thymocytes expressing Thy-1", "setting": "[3]; 10 μg/kg i.p.", "result": "90 ± 1", "unit": "%"},
      {"measurement": "Percent of thymocytes expressing L3T4", "setting": "[3]; 100 μg/kg i.p.", "result": "70 ± 1", "unit": "%"},
      {"measurement": "Percent of thymocytes expressing Lyt2", "setting": "[3]; 100 μg/kg i.p.", "result": "48 ± 1", "unit": "%"},
      {"measurement": "Percent of thymocytes expressing Thy-1", "setting": "[3]; 100 μg/kg i.p.", "result": "91 ± 0", "unit": "%"},
      {"measurement": "T-lymphocyte subset induced to differentiate in murine thymus", "setting": "[3]; conclusion from Table 3", "result": "preferentially induces differentiation of a subset of T-helper lymphocytes"}
    ]}
  ]
}
